EP2641901A1, “Novel microbiocides” (Syngenta Participations AG, priority 2012, dated 2013)

Assays:
Pyrenophora teres = Pyrenophora teres / barley / leaf disc preventative (Net blotch); format: in vivo; conditions: 200ppm, barley leaf segments cv Hasso, inoculated two days after application, disease control compared to untreated, 5 - 7 days after application
Procedure: Pyrenophora teres / barley / leaf disc preventative (Net blotch): Barley leaf segments cv Hasso were placed on agar in a 24-well plate and sprayed with formulated test compound diluted in water at an application rate of 200ppm. The leaf segments were inoculated with a spore suspension of the fungus two days after application of the test solution. The inoculated leaf segments were incubated at 20°C and 65% relative humidity under a light regime of 12/12 h (light/dark) in a climate cabinet and the activity of a compound was assessed as disease control compared to untreated when an appropriate level of disease damage appears in untreated check leaf segments (5 - 7 days after application). […] P.01, P.02

[1] = system: Blumeria graminis f. sp. tritici; experiment: Blumeria graminis f. sp. tritici / wheat / leaf disc preventative (Powdery mildew on wheat); format: in vivo; conditions: 200ppm, wheat leaf segments cv. Kanzler, inoculated 1 day after application, percent disease control compared to untreated, 6 - 8 days after application
Procedure: Blumeria graminis f. sp. tritici (Erysiphe graminis f. sp. tritici) / wheat / leaf disc preventative (Powdery mildew on wheat): Wheat leaf segments cv. Kanzler were placed on agar in a 24-well plate and sprayed with the formulated test compound diluted in water at an application rate of 200ppm. The leaf disks were inoculated by shaking powdery mildew infected plants above the test plates 1 day after application. The inoculated leaf disks were incubated at 20°C and 60% relative humidity under a light regime of 24 h darkness followed by 12h/12h (dark/light) in a climate chamber and the activity of a compound was assessed as percent disease control compared to untreated when an appropriate level of disease damage appears on untreated check leaf segments (6 - 8 days after application). […] P.01, P.02

Thanatephorus cucumeris = Thanatephorus cucumeris (Rhizoctonia solani) / liquid culture (foot rot, damping-off); format: cell-based; conditions: 200ppm; liquid culture (PDB potato dextrose broth), 24°C; inhibition of growth determined photometrically 3-4 days after application
Procedure: Thanatephorus cucumeris (Rhizoctonia solani) / liquid culture (foot rot, damping-off): Mycelia fragments of a newly grown liquid culture of the fungus were directly mixed into nutrient broth (PDB potato dextrose broth). After placing a DMSO solution of the test compounds into a 96-well microtiter plate at an application rate of 200ppm, the nutrient broth containing the fungal material was added. The test plates were incubated at 24°C and the inhibition of growth was determined photometrically 3-4 days after application. […] P.01, P.02

[2] = system: Mycosphaerella graminicola; experiment: Mycosphaerella graminicola (Septoria tritici) / liquid culture (Septoria blotch); format: cell-based; conditions: 200ppm; liquid culture (PDB potato dextrose broth), 24°C; inhibition of growth determined photometrically 4-5 days after application
Procedure: (§1) Mycosphaerella graminicola (Septoria tritici) / liquid culture (Septoria blotch): Conidia of the fungus from cryogenic storage were directly mixed into nutrient broth (PDB potato dextrose broth). After placing a DMSO solution of test compound into a 96-well microtiter plate at an application rate of 200ppm, the nutrient broth containing the fungal spores was added. The test plates were incubated at 24°C and the inhibition of growth was determined photometrically 4-5 days after application. […] P.01, P.02

Mycosphaerella arachidis = Mycosphaerella arachidis (Cercospora arachidicola) / liquid culture (early leaf spot); format: cell-based; conditions: 200ppm; liquid culture (PDB potato dextrose broth), 24°C; inhibition of growth determined photometrically 4-5 days after application
Procedure: as §1, with “arachidis (Cercospora arachidicola)” for “graminicola (Septoria tritici)”, “(early leaf spot):” for “(Septoria blotch):”

Magnaporthe grisea = format: in vivo; conditions: 200ppm; rice leaf segments cv. Ballila, preventative, inoculated 2 days after application; percent disease control compared to untreated, 5 - 7 days after application
Pythium ultimum = Pythium ultimum / liquid culture (seedling damping off); format: cell-based; conditions: 200ppm; liquid culture (potato dextrose broth), 24°C; inhibition of growth determined photometrically 2-3 days after application
Procedure: Pythium ultimum / liquid culture (seedling damping off) Mycelia fragments and oospores of a newly grown liquid culture of the fungus were directly mixed into nutrient broth (potato dextrose broth). After placing a DMSO solution of test compound into a 96-well format microtiter plate at an application rate of 200ppm, the nutrient broth containing the fungal mycelia/spore mixture was added. The test plates were incubated at 24°C and the inhibition of growth was determined photometrically 2-3 days after application. […] P.01, P.02

Monographella nivalis = Monographella nivalis (Microdochium nivale) / liquid culture (foot rot cereals); format: cell-based; conditions: 200ppm; liquid culture (PDB potato dextrose broth), 24°C; inhibition of growth determined photometrically 4-5 days after application
Procedure: as §1, with “Monographella nivalis (Microdochium nivale)” for “Mycosphaerella graminicola (Septoria tritici)”, “(foot rot cereals):” for “(Septoria blotch):”

[3] = system: Puccinia recondita f. sp. tritici; experiment: Puccinia recondita f. sp. tritici / wheat / leaf disc preventative (Brown rust); format: in vivo; conditions: 200ppm, wheat leaf segments cv Kanzler, inoculated 1 day after application, percent disease control compared to untreated, 7 - 9 days after application
Procedure: Puccinia recondita f. sp. tritici l wheat / leaf disc preventative (Brown rust): Wheat leaf segments cultivated variety (cv) Kanzler were placed on agar in 24-well plates and sprayed with formulated test compound diluted in water at an application rate of 200ppm. The leaf disks were inoculated with a spore suspension of the fungus 1 day after application. The inoculated leaf segments were incubated at 19°C and 75% relative humidity under a light regime of 12/12 h (light/dark) in a climate cabinet and the activity of a compound was assessed as percent disease control compared to untreated when an appropriate level of disease damage appears in untreated check leaf segments (7 - 9 days after application). […] P.01, P.02

Botryotinia fuckeliana = Botryotinia fuckeliana (Botrytis cinerea) / liquid culture (Gray mould); format: cell-based; conditions: 200ppm; liquid culture (Vogels broth), 24°C; inhibition of growth determined photometrically 3-4 days after application
Procedure: as §1, with “Botryotinia fuckeliana (Botrytis cinerea)” for “Mycosphaerella graminicola (Septoria tritici)”, “(Gray mould):” for “(Septoria blotch):”, “(Vogels” for “(PDB potato dextrose”, “3-4” for “4-5”

Glomerella lagenarium = Glomerella lagenarium (Colletotrichum lagenarium) / liquid culture (Anthracnose); format: cell-based; conditions: 200ppm; liquid culture (PDB potato dextrose broth), 24°C; inhibition of growth measured photometrically 3-4 days after application
Procedure: as §1, with “Glomerella lagenarium (Colletotrichum lagenarium)” for “Mycosphaerella graminicola (Septoria tritici)”, “(Anthracnose) :” for “(Septoria blotch):”, “measured” for “determined”, “3-4” for “4-5”

Phaeosphaeria nodorum = Phaeosphaeria nodorum / wheat / leaf disc preventative (Glume blotch); format: in vivo; conditions: 200ppm, wheat leaf segments cv Kanzler, inoculated 2 days after application, percent disease control compared to untreated, 5 - 7 days after application
Procedure: Phaeosphaeria nodorum (Septorla nodorum) / wheat / leaf disc preventative (Glume blotch): Wheat leaf segments cv Kanzler were placed on agar in a 24-well plate and sprayed with formulated test compound diluted in water at an application rate of 200ppm. The leaf disks were inoculated with a spore suspension of the fungus 2 days after application. The inoculated test leaf disks were incubated at 20°C and 75% relative humidity under a light regime of 12/12 h (light/dark) in a climate cabinet and the activity of a compound was assessed as percent disease control compared to untreated when an appropriate level of disease damage appears in untreated check leaf disks (5 - 7 days after application). […] P.01, P.02

[4] = system: Puccinia recondita f. sp. tritici; experiment: Puccinia recondita f. sp. tritici / wheat / leaf disc curative (Brown rust); format: in vivo; conditions: 200ppm, wheat leaf segments cv Kanzler, applied 1 day after inoculation, percent disease control compared to untreated, 6 - 8 days after application
Procedure: Puccinia recondita f. sp. tritici / wheat / leaf disc curative (Brown rust): Wheat leaf segments cv Kanzler were placed on agar in 24-well plates. The leaf segments were inoculated with a spore suspension of the fungus. The plates were stored in darkness at 19°C and 75% relative humidity. The formulated test compound diluted in water was applied at an application rate of 200ppm 1 day after inoculation. The leaf segments were incubated at 19°C and 75% relative humidity under a light regime of 12/12 h (light/dark) in a climate cabinet and the activity of a compound was assessed as percent disease control compared to untreated when an appropriate level of disease damage appears in untreated check leaf segments (6 - 8 days after application). […] P.01, P.02

CO/N=C1\CCCc2ccc(CCCO/N=C(\C)c3cccc(C)n3)nc21 [P.02]
at least 80%: control of Pyrenophora teres (Pyrenophora teres) | control of Blumeria graminis [1] | control of Thanatephorus cucumeris (Thanatephorus cucumeris) | control of Mycosphaerella graminicola [2] | control of Mycosphaerella arachidis (Mycosphaerella arachidis) | control of Magnaporthe grisea (Magnaporthe grisea) | control of Pythium ultimum (Pythium ultimum) | control of Monographella nivalis (Monographella nivalis) | control of Puccinia recondita f. sp. tritici [3] | control of Botryotinia fuckeliana (Botryotinia fuckeliana) | control of Glomerella lagenarium (Glomerella lagenarium) | control of Phaeosphaeria nodorum (Phaeosphaeria nodorum) | control of Puccinia recondita f. sp. tritici [4]
